# How the values were obtained:
# [1] = tested on: mice exposed neonatally to DEX; test: Tail suspension test (TST) in DEX-treated mice; details: for immobility time in the TST: DEX-treated juvenile mice, 10 mg/kg i.p. single injection, vs saline
# Description: (§1) On the final day of this period, the females were placed in isolation and checked daily around the expected delivery day. The day of birth was defined as day 0. The mice were injected intraperitoneally with DEX (Wako Pure Chemical Industries, Ltd., Tokyo, Japan) dissolved in saline on day 1, day 2, and day 3 at doses of 0.5 mg/kg body weight, 0.3 mg/kg body weight, and 0.1 mg/kg body weight, respectively. In addition, normal controls were injected with equal volumes (10 ml/kg) of saline.
# (§2) The TST was performed as described below. […] The FST was performed as described below. […] The cages were cleaned between testing session.
# Control C57/B6 mice [2] = test: Conditioned place preference test in control mice (dependence); details: injected on day 4, 6, 8, evaluation on day 11, vs saline
# Description: 15-minute habituation was performed for 3 days. Then, 30-minute conditioning was performed on day 4 to day 10, and a behavioral evaluation test was performed on day 11. Saline was injected on day 5, day 7, and day 9. […] In each of the groups, the injection was performed three times, i.e., on day 4, day 6, and day 8. Saline means a group injected with saline. In the group, the injection was performed three times, i.e., on day 5, day 7, and day 9.
# The place preference test was performed using a conditioned place preference test apparatus (BrainSienceIdea Co., Ltd., Osaka, Japan).
# [3] = tested on: social defeat stress mice; test: Tail suspension test (TST) in social defeat stress mice; details: for immobility time in the TST: 10 mg/kg i.p. single injection, vs saline; for antidepressant effects compared to S(+)-ketamine, TST: 10 mg/kg i.p.
# Description: as §2
# Control C57/B6 mice [4] = test: Prepulse inhibition test in control mice (side effect); details: 5, 10, or 20 mg/kg, prepulses 69, 73, 77, 81 dB before 110-dB pulse, vs saline
# Description: PP69, PP73, PP77, and PP81 mean that stimuli at 69, 73, 77, and 81 dB for more than 20 milliseconds were presented 100 milliseconds before a 110-dB pulse, respectively. Data analysis was performed by Wilks Lambda, which is multivariate analysis of variance.
# The prepulse inhibition test was performed using a startle response system (SR-LAB, SanDiego Instruments, San Diego, CA, United States).
# [5] = known property of both isomers; cited from earlier work
# Control C57/B6 mice [6] = test: Locomotion-enhancing effect in control mice (side effect); assay type: in vivo; details: for locomotion (count/10 min) after injection: vs saline
# Description: An effect of ketamine on the locomotion of mice was tested using SCANET MV-40 ([…] Co., Ltd., Toyama, Japan). Specifically, the locomotion was measured for a total of 180 minutes, i.e., 60 minutes before injection to 120 minutes after injection, and calculated as a locomotion per 10 minutes.
# [7] = tested on: social defeat stress mice; test: 1% sucrose preference test (SPT) in social defeat stress mice; details: for sucrose consumption preference in the SPT: 10 mg/kg i.p. single injection, vs saline
# Description: as §2
# [8] = tested on: mice exposed neonatally to DEX; test: Forced swimming test (FST) in DEX-treated mice; details: for immobility time in the FST: DEX-treated juvenile mice, 10 mg/kg i.p. single injection, vs saline
# Description: as §1, §2
# [9] = tested on: social defeat stress mice; test: Forced swimming test (FST) in social defeat stress mice; details: for immobility time in the FST: 10 mg/kg i.p. single injection, vs saline; for antidepressant effects compared to S(+)-ketamine, FST: 10 mg/kg i.p.
# Description: as §2
# healthy volunteers = details: Non Patent Literature 13, cited from earlier work; for cerebral metabolic rates of glucose (CMRglu), PET: intravenous infusion of 15 mg for 5 min, then 0.014 to 0.02 mg/kg/min for 53 min (S), equimolar doses (R)
# [10] = tested on: treatment-resistant obsessive-compulsive disorder and treatment-resistant posttraumatic stress disorder; details: treatment-resistant patients; Non Patent Literatures 6 to 8; cited from earlier work
# [11] = tested on: treatment-resistant patients with MDD; details: cited from earlier work; for effective oral dose in patients with depression: Non Patent Literatures 15 and 16
# [12] = Non Patent Literature 12; cited from earlier work
# [13] = Non Patent Literature 12; cited from earlier work; remark: listed apart in the source
SMILES,immobility time in the TST ([1]; 27 hours after injection),immobility time in the TST ([1]; 7 days after injection),"conditioned place preference test score (CPP score) (Control C57/B6 mice [2]; 5, 10, or 20 mg/kg)",immobility time in the TST ([3]; 2 days after injection),immobility time in the TST ([3]; 7 days after injection),prepulse inhibition (Control C57/B6 mice [4]),sucrose consumption preference in the SPT ([7]; 1 day after injection),sucrose consumption preference in the SPT ([7]; 6 days after injection),immobility time in the FST ([8]; 29 hours after injection),immobility time in the FST ([8]; 7 days after injection),immobility time in the FST ([9]; 2 days after injection),immobility time in the FST ([9]; 7 days after injection),"cerebral metabolic rates of glucose (CMRglu), PET (healthy volunteers)",effective oral dose in patients with depression [11],also measured
"CN[C@@]1(c2ccccc2Cl)CCCCC1=O.Cl [R(−)-ketamine, R(−)-ketamine hydrochloride]",markedly reduced the immobility time,significantly reduced the immobility time,did not increase the CPP score,markedly reduced the immobility time,significantly reduced the immobility time,did not disrupt prepulse inhibition,the sucrose consumption preference significantly increased,significantly restored the sucrose consumption preference,markedly reduced the immobility time,significantly reduced the immobility time,markedly reduced the immobility time,significantly reduced the immobility time,tended to decrease CMRglu across brain regions,,"antidepressant effects compared to S(+)-ketamine, TST ([1]; DEX-treated mice, 10 mg/kg i.p., 27 hours after injection, no significant difference): slightly high antidepressant effects as compared to those of S(+)-ketamine; antidepressant effects compared to S(+)-ketamine, TST ([3]; 2 days after injection): significant high antidepressant effects as compared to those of S(+)-ketamine; antidepressant effects compared to S(+)-ketamine, TST ([3]; 7 days after injection): significantly high antidepressant effects as compared to S(+)-ketamine; in vivo clearance [5]: rapid in vivo clearance; locomotion (count/10 min) after injection (Control C57/B6 mice [6]; 5, 10, or 20 mg/kg, up to 120 minutes after injection): did not affect the locomotion; antidepressant effects compared to S(+)-ketamine, SPT ([7]; 10 mg/kg i.p., 1 day after injection): more potent than those of S(+)-ketamine; difference between R(−)-ketamine and S(+)-ketamine, SPT ([7]; 10 mg/kg i.p., 6 days after injection): statistically significant; antidepressant effects compared to S(+)-ketamine, FST ([8]; DEX-treated mice, 10 mg/kg i.p., 29 hours after injection, no significant difference): slightly high antidepressant effects as compared to those of S(+)-ketamine; difference between R(−)-ketamine and S(+)-ketamine, FST immobility time ([8]; DEX-treated mice, 10 mg/kg i.p., 7 days after injection): statistically significant; antidepressant effects compared to S(+)-ketamine, FST ([9]; 2 days after injection): significant high antidepressant effects as compared to those of S(+)-ketamine; antidepressant effects compared to S(+)-ketamine, FST ([9]; 7 days after injection): significantly high antidepressant effects as compared to S(+)-ketamine; psychotic symptoms in PET study (healthy volunteers; doses equimolar to psychotomimetic doses of S(+)-ketamine): did not produce psychotic symptoms"
"CNC1(c2ccccc2Cl)CCCCC1=O.Cl (racemic) [RS(+/−)-ketamine, ketamine hydrochloride]",,,,,,,,,,,,,,0.5 mg/kg,"effect in obsessive-compulsive disorder and PTSD [10]: effective; conditioned place preference test score (CPP score) (Control C57/B6 mice [2]; 10 mg/kg): significantly increased the CPP score; effect on suicide ideation ([11]; Non Patent Literature 9): effect of inhibiting suicide ideation; duration of clinical antidepressant effects (other reports) ([11]; effects may last, Non Patent Literatures 3, 4, and 11): ≥ 2 weeks; antidepressant effect of intranasal administration ([11]; intranasal, treatment-resistant patients with MDD, Patent Literature 1 and Non Patent Literature 17): showed antidepressant effect; duration of clinical antidepressant effects ([11]; starting from several hours after single administration): 1 to 2 days; antidepressant effects in patients ([11]; treatment-resistant patients with MDD and depressive symptoms of treatment-resistant bipolar disorder, Non Patent Literatures 3 to 5): rapid and robust antidepressant effects"
"CN[C@]1(c2ccccc2Cl)CCCCC1=O.Cl [S(+)-ketamine, S(+)-ketamine hydrochloride]",markedly reduced the immobility time,did not reduce the immobility time,increased the CPP score in a dose-dependent manner,markedly reduced the immobility time,significantly reduced the immobility time,disrupted prepulse inhibition in a dose-dependent manner,the sucrose consumption preference significantly increased,significantly restored the sucrose consumption preference,markedly reduced the immobility time,did not reduce the immobility time,markedly reduced the immobility time,significantly reduced the immobility time,increased cerebral metabolic rates of glucose,1.25 mg/kg,"psychotomimetic side effects compared to R-isomer [12]: greater psychotomimetic side effects than R-isomer; anesthetic effect as compared to R-isomer [13]: 3- to 4 fold; antidepressant effects compared to RS(+/−)-ketamine (0.5 mg/kg, i.v.) ([11]; 0.25 mg/kg, i.v., treatment-resistant patients with MDD, case report, Non Patent Literature 14): weaker than those of RS(+/−)-ketamine; time after injection at which enhanced locomotion returned to a normal value (Control C57/B6 mice [6]; 10 mg/kg or 20 mg/kg): 30 min; locomotion (count/10 min) after injection (Control C57/B6 mice [6]; 10 mg/kg or 20 mg/kg, 10 minutes and 20 minutes after the injection): significant increase in locomotion"
